Reference: patent US20230390373A1, “A LIVE STRAIN OF STAPHYLOCOCCUS AUREUS AND USES THEREOF” (priority 2020, published 2023)
Entries after “also recorded” stand apart in the source; their conditions may differ. Residues, ends and D or L forms follow the SMILES beside them. *: point of attachment. Cbz = O=C(OCc1ccccc1)*; CH2F = FC*

How the values were obtained:
[1] = test system: mouse bone marrow derived dendritic cells (BMDC); experiment: IL-1β release / inflammasome activation in infected BMDC; type: cell-based; settings: MOI=20, 6 hours; for IL-1β production/release in S. aureus infected BMDC: MCC950 10 μM, Cytochalasin D 5 μM, ZM241385 10 μM
Description: (§1) Bone marrow cells extracted from femur of 8-12 weeks old female BALB/c mice were culture in RPMI-1640 medium supplemented with L-glutamine, 10% heat inactivated-FBS, 1×penicillin/streptomycin, 10 mM HEPES, 50 μM-β mercaptoethanol, 20 ng/ml mGM-CSF (PeproTech) for up to 7 days differentiation.
One day before bacterial infection experiments, S. aureus strains were inoculated and cultured with BHI broth for overnight. Next day, overnight culture of bacteria strains were sub-cultured in fresh BHI broth at a dilution of 1:100 and grown at 37° C. Following 3 hours of culturing, S. aureus were harvested and washed for two to three times in cold PBS by centrifugation. Finally, S. aureus strains were diluted with desired volume of PBS, yielding an OD600 of 0.5 (1×10^8 CFU/ml), and further centrifuged and resuspended at desired bacterial concentration. The number of bacteria was determined by serial dilution and colony formation on BHI agar plates. Mammalian cells were plated in 24-well plates at a number of 4×10^5 per well and infected with S. aureus strains in antibiotic free medium at the indicated MOI.
(§2) Culture supernatants of relevant cells were collected and centrifuged at 13000 rpm for 4 min to get rid of cell debris and bacteria. Levels of LDH in culture supernatants were measured by CytoTox 96 Non-Radioactive Cytotoxicity Assay kit (Promega). Cell viability was measured by the CellTiter Glo Luminescent Cell Viability Assay (Promega). ELISA assay was conducted according manufactures' instructions.
For detection of cleaved form of caspase-1, cell culture supernatants were precipitated by methanol-chloroform method. Briefly, supernatant was mixed with an equal volume of methanol and 0.25 volumes of chloroform, vortexed and centrifuge for 15 min at 20000 g. The upper phase was discarded and the interphase was mixed with methanol. After centrifugation for 5 min at 20000 g, the pellet was resuspended in 2×SDS-PAGE sample buffer and boiled for 5 min at 100° C. Protein samples were separated by 15% SDS-PAGE gels and were transferred onto PVDF membranes. Total cell lysates lysed by RIPA buffer (50 mM Tris-Cl, pH 7.4, 150 mM NaCl, 1% Triton X-100, 0.1% SDS, 1% sodium deoxycholate and 0.5 mM EDTA) supplemented with 1× protease inhibitor cocktail (Roche) were boiled for 5 min at 100° C. Lysate aliquots were separated by SDS-PAGE gels and transferred onto PVDF membranes. Blots were probed with primary antibody: rabbit anti-caspase-1 (1:1000 dilution, 179515 from Abcam, USA), mouse anti-β actin (1:5000 dilution, A5316 from Sigma). Anti-rabbit or mouse antibodies conjugated to HRP were used as secondary reagents.

BALB/c mice = experiment: Th17 response in inhibitor-pretreated mice infected with wild type S. aureus; type: in vivo; settings: splenocytes re-stimulated MOI=5, 4 days
Description: Protocol for harvest and calculation of wild type and variant S. aureus strains was the same as described above. To induce systemic blood infection model of S. aureus in FIG. 1, 200 ul of bacterial suspension (1×10^7 CFU) was administered intravenously into naïve 6-wk-old female BALB/c mice. To establish re-infection model in FIG. 5, mice were intraperitoneally infected with WT S. aureus (USA300), adsA mutant strain or WT S. aureus (USA300)/adsA mutant strain (4×10^7 CFU) for a total of 3 times at 7 days interval. After 14 days convalescent period, mice were re-challenged with lethal dose of WT USA300 S. aureus (4×10^7 CFU) or sublethal dose of WT USA300 S. aureus (2×10^7 CFU). Upon bacterial infection, health conditions of mice were frequently monitored in compliance with humane end points (HEP) form. To measure staphylococcal burden in blood, after 2 h of i.v. infection, mice were anaesthetized by intraperitoneal injection of 80-120 mg ketamine and 3-6 mg xylazine per kilogram of body weight and blood was collected via tail vein. Blood samples were incubated on ice in 0.5% saponin/PBS for lysis of host cells. Later on, serial dilutions were performed on BHI agar plates for colony formation. To enumerate bacteria in tissues, mice were euthanized by CO2 inhalation, organs including lungs, spleens and kidneys were harvested and homogenized in 1% Triton X-100/PBS. Aliquots of homogenates were serially diluted and spread on BHI agar plates for colony formation. For histopathology, kidneys were incubated in 4% paraformaldehyde (PFA) at room temperature for 24 h. Tissues were embedded in paraffin, thin sectioned, stained with hematoxylin-eosin, and examined by microscopy.
Animals were sacrificed at indicated time points in re-infection model. Spleens were harvested and grinded for cells suspension. After centrifugation, splenocytes were experienced red blood cell lysing, washes and filtering, and single cells suspension was cultured in RPMI-1640 media supplemented with 10% FBS, 100 U/ml penicillin and […]. […]

HMDM = experiment: Cell viability assay of infected HMDM; type: cell-based, human; settings: MOI=100, 8 hours, Z-VADFMK 25 μM, VX765 20 μM, NSA 5 μM
Description: Human peripheral blood mononuclear cells (PBMC) were isolated from human buffy coat (provided by Department of Microbiology, The University of Hong Kong, Li Ka Shing Faculty of Medicine) by Ficoll-Paque gradient protocol. In brief, 30 mL of 1:1 PBS diluted buffy coat from healthy donors were layered on Ficoll-Paque Plus (GE Healthcare, Life Sciences) and centrifuged at 450×g for 30 min at room temperature. Separated layers of PBMC were collected and then washed 2 times with RPMI-1640 medium. After washing, the cells were resuspended in 4 mL red blood cell lysing buffer (Biolegend, RBC Lysis Buffer) and incubated for 5 min at room temperature. Following two subsequent washes, the cell pellet was resuspended in RPMI-1640 media supplemented with 10% FBS, 100 U/ml penicillin and 0.1 mg/ml streptomycin for further infection experiments. To differentiate human monocytes-derived macrophages (HMDM), isolated PBMC were seeded on poly-L-lysine coated coverslips in 24 well plate and cultured in RPMI-1640 media supplemented with L-glutamine, 10% FBS, 1×penicillin/streptomycin, 10 mM HEPES, 50 ng/mL hGM-CSF (PeproTech) for up to 7 days differentiation.
One day before bacterial infection experiments, S. aureus strains were inoculated and cultured with BHI broth for overnight. Next day, overnight culture of bacteria strains were sub-cultured in fresh BHI broth at a dilution of 1:100 and grown at 37° C. Following 3 hours of culturing, S. aureus were harvested and washed for two to three times in cold PBS by centrifugation. […] The number of bacteria was determined by serial dilution and colony formation on BHI agar plates. […]
as §2, with “ELISA assay was conducted according manufactures' instructions.” left out

NLRP3 = NLRP3 expression in BMDC (qPCR, immunoblot); type: cell-based, mouse; settings: 4 hours
Description: as §1
For detection of cleaved form of caspase-1, cell culture supernatants were precipitated by methanol-chloroform method. Briefly, supernatant was mixed with an equal volume of methanol and 0.25 volumes of chloroform, vortexed and centrifuge for 15 min at 20000 g. The upper phase was discarded and the interphase was mixed with methanol. After centrifugation for 5 min at 20000 g, the pellet was resuspended in 2×SDS-PAGE sample buffer and boiled for 5 min at 100° C. Protein samples were separated by 15% SDS-PAGE gels and were transferred onto PVDF membranes. […]
Total RNA was extracted from cells using TRIzol Reagent (Invitrogen) and 1 μg total RNA was used for reverse transcription (Takara) according to manufactures' instructions. The cDNA was then used for quantitative RT-PCR to analyze relevant mRNA expression using Applied Biosystems StepOnePlus™ Real-Time PCR System and SYBR Premix Ex Taq kit (Takara) according to the manufacturer's instruction. The data were normalized to GAPDH and fold change in gene expression was calculated by comparative CT method (2^−ΔΔCT).

| Compound | IL-1β production/release in S. aureus infected BMDC [1] | Th17 response / IL-17A production vs vehicle control (BALB/c mice) | effect on S. aureus / adsA mutant-induced cell death (HMDM) | further results |
| --- | --- | --- | --- | --- |
| C=C1[C@@H](C)[C@H]2[C@H](Cc3ccccc3)NC(=O)[C@]23[C@H](OC(C)=O)/C=C/[C@@](C)(O)C(=O)[C@@H](C)C/C=C/[C@H]3[C@@H]1O [Cytochalasin D] | nearly suppressed IL-1β production | – | – | IL-1β production/release in S. aureus infected BMDC ([1]; listed as cytochalasin D): had little IL-1β production |
| CC(C)(O)c1coc(S(=O)(=O)NC(=O)Nc2c3c(cc4c2CCC4)CCC3)c1 [MCC950] | largely dampen IL-1β production; also recorded: almost prevented the release of IL-1β; also recorded: had little IL-1β production | decreased IL-17A production | – | – |
| CCO[C@@H]1OC(=O)C[C@@H]1NC(=O)[C@@H]1CCCN1C(=O)[C@@H](NC(=O)c1ccc(N)c(Cl)c1)C(C)(C)C [VX765] | – | decreased IL-17A production | dramatically decrease adsA mutant-induced cell death | – |
| COC(=O)C[C@H](NC(=O)[C@H](C)NC(=O)[C@@H](NC(=O)OCc1ccccc1)C(C)C)C(=O)CF [Z-VAD-FMK] (Cbz-Val-Ala-Asp(OMe)-CH2F) | – | – | dramatically decrease adsA mutant-induced cell death | – |
| Nc1nc(NCCc2ccc(O)cc2)nc2nc(-c3ccco3)nn12 [ZM241385] | improved IL-1β production | – | – | – |
| Nc1ncnc2c1ncn2[C@@H]1O[C@H](CO)[C@@H](O)[C@H]1O [adenosine, Adenosine] | – | – | – | inflammasome activation (IL-1β release and immunoblot) in BMDC infected with adsA mutant ([1]; pretreated with adenosine 100 μM): impaired inflammasome activation; expression level of NLRP3 (qPCR) (NLRP3; BMDC activated by adsA mutant S. aureus or Pam3CSK4 / LPS (100 ng/ml), adenosine 100 μM): decreased the expression level of NLRP3; NLRP3 expression at protein level (NLRP3; BMDC pre-treated with a series of dose of adenosine, LPS 100 ng/ml): inhibited NLRP3 expression at protein level in a dose-dependent manner |
| Cn1c(=O)c2c(ncn2C)n(C)c1=O [caffeine, Caffeine] | – | did not have any influence on Th17 immunity | – | – |
| COc1nccnc1NS(=O)(=O)c1ccc(NC(=O)/C=C/c2ccc([N+](=O)[O-])s2)cc1 [necrosulfonamide, Necrosulfonamide] | – | – | did not have apparent effect on S. aureus induced cytotoxicity | – |
